According to ChEMBL document CHEMBL1201862, “PubChem BioAssay data set” (2004):
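Compound exposure: 48 hours, 5 concentrations, 96-well plates. The concentration for 50% growth inhibition is given as GI50.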 Calls of active or inactive are those of the source. Cut-off read from the data, not from the text of the source: active = GI50 up to about 1.1 µM and inactive = higher.

Key:
Test in all cases: DTP human tumour cell line panel, 48 h
CCRF-CEM = system: CCRF-CEM
A549 = system: A549
Hs-578T = system: Hs-578T
HCC 2998 = system: HCC 2998
SK-MEL-5 = system: SK-MEL-5
RPMI-8226 = system: RPMI-8226
UO-31 = system: UO-31
SK-MEL-28 = system: SK-MEL-28
SW-620 = system: SW-620
HOP-92 = system: HOP-92
786-0 = system: 786-0
SF-539 = system: SF-539
SK-MEL-2 = system: SK-MEL-2
HCT-116 = system: HCT-116
SF-268 = system: SF-268
CAKI-1 = system: CAKI-1
OVCAR-4 = system: OVCAR-4
COLO 205 = system: COLO 205
ACHN = system: ACHN
SK-OV-3 = system: SK-OV-3

Compound	GI50 (CCRF-CEM)	GI50 (A549)	GI50 (Hs-578T)	GI50 (HCC 2998)	GI50 (SK-MEL-5)	GI50 (RPMI-8226)	GI50 (UO-31)	GI50 (SK-MEL-28)	GI50 (SW-620)	GI50 (HOP-92)	GI50 (786-0)	GI50 (SF-539)	GI50 (SK-MEL-2)	GI50 (HCT-116)	GI50 (SF-268)	GI50 (CAKI-1)	GI50 (OVCAR-4)	GI50 (COLO 205)	GI50 (ACHN)	GI50 (SK-OV-3)
BrCC[N+]12CCCN1CCC2	1.59 µM (inactive)	41.1 µM (inactive)	0.692 µM (active)	22.3 µM (inactive)	18 µM (inactive)	1.53 µM (inactive)	13.8 µM (inactive)	10.7 µM (inactive)	2.28 µM (inactive)	5.22 µM (inactive)	9.06 µM (inactive)	15.2 µM (inactive)	20.5 µM (inactive)	5.66 µM (inactive)	24.9 µM (inactive)	1.03 µM (active)	4.23 µM (inactive)	4.14 µM (inactive)	7.26 µM (inactive)	> 65.5 µM (inactive)
COc1c(C)c2nc3ccccc3nc2c2c(O)ccnc12	> 100 µM (inactive)	37.1 µM (inactive)	16 µM (inactive)	> 100 µM (inactive)	35.6 µM (inactive)	> 100 µM (inactive)	> 100 µM (inactive)	> 100 µM (inactive)	> 100 µM (inactive)	36.4 µM (inactive)	16.9 µM (inactive)	54.2 µM (inactive)	> 100 µM (inactive)	> 100 µM (inactive)	68.7 µM (inactive)	> 100 µM (inactive)	> 100 µM (inactive)	46.1 µM (inactive)	30.1 µM (inactive)	75.7 µM (inactive)
O=C1C=C(Cl)C(=O)C(c2ccc(Cl)cc2)=C1	3.35 µM (inactive)	46.6 µM (inactive)	26.5 µM (inactive)	18.1 µM (inactive)	16.5 µM (inactive)	12.1 µM (inactive)	14.8 µM (inactive)	20.2 µM (inactive)	25.5 µM (inactive)	19.3 µM (inactive)	22.1 µM (inactive)	16.9 µM (inactive)	18.6 µM (inactive)	19.3 µM (inactive)	19.7 µM (inactive)	17.6 µM (inactive)	17.7 µM (inactive)	16.4 µM (inactive)	16.7 µM (inactive)	47.3 µM (inactive)
COc1ccc(C(CC(=O)c2ccc3c(c2)OCO3)c2c(O)oc3ccccc3c2=O)cc1OC (stereo not given)	> 100 µM (inactive)	51.1 µM (inactive)	45.8 µM (inactive)	> 100 µM (inactive)	47 µM (inactive)	45.1 µM (inactive)	73.3 µM (inactive)	> 100 µM (inactive)	> 100 µM (inactive)	38.5 µM (inactive)	> 100 µM (inactive)	> 100 µM (inactive)	> 100 µM (inactive)	75.3 µM (inactive)	> 100 µM (inactive)	> 100 µM (inactive)	61.8 µM (inactive)	63.4 µM (inactive)	> 100 µM (inactive)	> 100 µM (inactive)
OC(c1ccoc1)c1cc2ccccc2s1 (stereo not given)	> 10 µM (inactive)	> 10 µM (inactive)	> 10 µM (inactive)	> 10 µM (inactive)	> 10 µM (inactive)	> 10 µM (inactive)	> 10 µM (inactive)	> 10 µM (inactive)	> 10 µM (inactive)	> 10 µM (inactive)	> 10 µM (inactive)	> 10 µM (inactive)	> 10 µM (inactive)	> 10 µM (inactive)	> 10 µM (inactive)	> 10 µM (inactive)	> 10 µM (inactive)	> 10 µM (inactive)	> 10 µM (inactive)	> 10 µM (inactive)
CN(C)c1nc(N)nc(CS)n1	25.5 µM (inactive)	51.3 µM (inactive)	> 100 µM (inactive)	> 100 µM (inactive)	> 100 µM (inactive)	96.2 µM (inactive)	> 100 µM (inactive)	> 100 µM (inactive)	> 100 µM (inactive)	> 100 µM (inactive)	> 100 µM (inactive)	> 100 µM (inactive)	36.2 µM (inactive)	> 100 µM (inactive)	> 100 µM (inactive)	> 100 µM (inactive)	80.7 µM (inactive)	> 100 µM (inactive)	> 100 µM (inactive)	> 100 µM (inactive)
c1ccc(CCN(Cc2nc3ccccc3[nH]2)Cc2nc3ccccc3[nH]2)cc1	3.39 µM (inactive)	17.1 µM (inactive)	20.2 µM (inactive)	16.9 µM (inactive)	3.86 µM (inactive)	3.05 µM (inactive)	10.9 µM (inactive)	13.7 µM (inactive)	10.3 µM (inactive)	12.5 µM (inactive)	15.9 µM (inactive)	20.7 µM (inactive)	18 µM (inactive)	4.67 µM (inactive)	13.6 µM (inactive)	3.85 µM (inactive)	17.5 µM (inactive)	13.4 µM (inactive)	4.79 µM (inactive)	24.4 µM (inactive)
